Measurements: patent publication US7205382B2, “Peptides, the production and use thereof for binding immunoglobulins” (Fresenius Medical Care Affina GmbH, priority 2000, dated 2007)
Bridge positions count the residues as written; N and C are the ends. Square brackets hold non-standard residues; d marks the D form. Ends that are not written are not given here. cellulose = not defined here; βAla = NCCC(=O)O

Key:
Format in all cases: binding
Design in all cases: key: No binding of immunoglobulin for the defined peptide variant, detection negative: 0; Binding of immunoglobulin for the defined peptide variant, detection positive: +
serum albumin = experiment: Cellulose-immobilized 13-mer peptide variants incubated with serum albumin (negative control), anti-human IgG-AP detection; details: blocking buffer without addition, 3 h room temperature
In short: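 Read-out was colorimetric NBT/BCIP staining (developing buffer pH 9.5) after alkaline phosphatase-conjugated anti-human IgG at 1.2 μg/ml. Before this, the immobilized peptides had been incubated 3 h at room temperature with 1 μg/ml IgG-Fc, 1:10,000 diluted serum, or albumin-containing blocking buffer without addition.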

human IgG-Fc = experiment: Cellulose-immobilized 13-mer peptide variants incubated with human IgG-Fc, anti-human IgG-AP detection; details: IgG-Fc 1 μg/ml in blocking buffer, 3 h room temperature
In short: (§1)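 Spot membrane, (βA)(βA) spacer; T-TBS pH 8.0 wash, block 5% saccharose/4% BSA. 3 h RT with IgG-Fc 1 μg/ml, serum 1:10,000, or block buffer only (specificity control). 3× wash, AP-anti-human IgG 1.2 μg/ml, NBT/BCIP in pH 9.5 buffer.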

[1] = tested on: immunoglobulins in human plasma; experiment: Cellulose-immobilized 13-mer peptide variants incubated with human plasma, anti-human IgG-AP detection; details: human plasma as sample, diluted 1:10,000 in blocking buffer, 3 h room temperature
In short: as §1

Result for incubation with serum albumin (immunoglobulin binding detection) (serum albumin) | Result for incubation with human IgG-Fc (immunoglobulin binding detection) (human IgG-Fc) | Result for incubation with human plasma (immunoglobulin binding detection) [1] | Substance
0 | 0 | 0 | 04P: cellulose-bound 13-mer variant DCAPHLGELVWCT-(βA)(βA) (disulfide 2-12 (inferred); not fully specified (N-terminus, C-terminus); printed as DCAPHLGELVWCT-(βA)(βA); also: cellulose-bound)
0 | 0 | 0 | 05M: cellulose-bound 13-mer variant DCAWMLGELVWCT-(βA)(βA) (disulfide 2-12 (inferred); not fully specified (N-terminus, C-terminus); printed as DCAWMLGELVWCT-(βA)(βA); also: cellulose-bound)
0 | + | + | 06Q: cellulose-bound 13-mer variant DCAWHQGELVWCT-(βA)(βA) (DCAWHQGELVWCT-{βAla-βAla-cellulose}; disulfide 2-12 (inferred); not fully specified (N-terminus); printed as DCAWHQGELVWCT-(βA)(βA); reading uncertain)
0 | 0 | 0 | 12K: cellulose-bound 13-mer variant DCAWHLGELVWKT-(βA)(βA) (DCAWHLGELVWKT-{βAla-βAla-cellulose}; not fully specified; printed as DCAWHLGELVWKT-(βA)(βA); reading uncertain)
0 | 0 | 0 | 05F: cellulose-bound 13-mer variant DCAWFLGELVWCT-(βA)(βA) (disulfide 2-12 (inferred); not fully specified (N-terminus, C-terminus); printed as DCAWFLGELVWCT-(βA)(βA); also: cellulose-bound)
0 | + | + | 08D: cellulose-bound 13-mer variant DCAWHLGDLVWCT-(βA)(βA) (DCAWHLGDLVWCT-{βAla-βAla-cellulose}; disulfide 2-12 (inferred); not fully specified (N-terminus); printed as DCAWHLGDLVWCT-(βA)(βA); reading uncertain)
0 | 0 | 0 | 07C: cellulose-bound 13-mer variant DCAWHLCELVWCT-(βA)(βA) (DCAWHLCELVWCT-{βAla-βAla-cellulose}; not fully specified (N-terminus); printed as DCAWHLCELVWCT-(βA)(βA); cysteine pairing not given here; reading uncertain)
0 | 0 | 0 | 04D: cellulose-bound 13-mer variant DCADHLGELVWCT-(βA)(βA) (DCADHLGELVWCT-{βAla-βAla-cellulose}; disulfide 2-12 (inferred); reading uncertain; also: printed as DCADHLGELVWCT-(βA)(βA))
0 | + | 0 | 11H: cellulose-bound 13-mer variant DCAWHLGELVHCT-(βA)(βA)
0 | 0 | 0 | 11A: cellulose-bound 13-mer variant DCAWHLGELVACT-(βA)(βA) (DCAWHLGELVACT-{βAla-βAla-cellulose}; disulfide 2-12 (inferred); reading uncertain; also: printed as DCAWHLGELVACT-(βA)(βA))
0 | + | 0 | 06D: cellulose-bound 13-mer variant DCAWHDGELVWCT-(βA)(βA) (DCAWHDGELVWCT[βAla][βAla]; disulfide 2-12 (inferred); not fully specified (N-terminus); printed as DCAWHDGELVWCT-(βA)(βA); also: cellulose-bound)
0 | 0 | 0 | 09N: cellulose-bound 13-mer variant DCAWHLGENVWCT-(βA)(βA) (DCAWHLGENVWCT-{βAla-βAla-cellulose}; disulfide 2-12 (inferred); reading uncertain; also: printed as DCAWHLGENVWCT-(βA)(βA))
0 | + | + | 01A: cellulose-bound 13-mer variant ACAWHLGELVWCT-(βA)(βA) (ACAWHLGELVWCT-{βAla-βAla-cellulose}; disulfide 2-12 (inferred); reading uncertain; also: printed as ACAWHLGELVWCT-(βA)(βA))
0 | 0 | 0 | 10G: cellulose-bound 13-mer variant DCAWHLGELGWCT-(βA)(βA) (DCAWHLGELGWCT-{βAla-βAla-cellulose}; disulfide 2-12 (inferred); reading uncertain; also: printed as DCAWHLGELGWCT-(βA)(βA))
0 | 0 | 0 | 07N: cellulose-bound 13-mer variant DCAWHLNELVWCT-(βA)(βA) (DCAWHLNELVWCT-{βAla-βAla-cellulose}; disulfide 2-12 (inferred); not fully specified (N-terminus); printed as DCAWHLNELVWCT-(βA)(βA); reading uncertain)
0 | 0 | 0 | 09G: cellulose-bound 13-mer variant DCAWHLGEGVWCT-(βA)(βA) (DCAWHLGEGVWCT-{βAla-βAla-cellulose}; disulfide 2-12 (inferred); reading uncertain; also: printed as DCAWHLGEGVWCT-(βA)(βA))
